{
  "source": "ChEMBL document CHEMBL3797140",
  "about": "“Acridin-3,6-dialkyldithiourea hydrochlorides as new photosensitizers for photodynamic therapy of mouse leukemia cells” (Bioorg Med Chem, 2016)",
  "key": {"L1210 [1]": {"tested_on": "L1210", "assay": "Phototoxicity against mouse L1210 cells assessed as cell viability preincubated for 1 hr followed by 1.05 J/cm2 UV-A irradiation measured after 48 hrs by MTT assay", "type": "functional, cell-based", "conditions": "L1210, light or radiation study"}, "[2]": {"assay": "Dark toxicity against mouse L1210 cells assessed as cell viability after 48 hrs by MTT assay", "type": "cell-based"}, "[3]": {"assay": "Dark toxicity against mouse NIH/3T3 cells assessed as cell viability after 48 hrs by MTT assay", "type": "cell-based, NIH3T3"}, "[4]": {"assay": "Phototoxicity against mouse NIH/3T3 cells assessed as cell viability preincubated for 1 hr followed by 1.05 J/cm2 UV-A irradiation measured after 48 hrs by MTT assay", "type": "cell-based", "conditions": "NIH3T3, light or radiation study"}, "Calf thymus DNA": {"tested_on": "Calf thymus DNA", "assay": "Binding affinity to calf thymus DNA by UV-visible spectrophotometry", "type": "nucleic-acid assay", "conditions": "Bos taurus"}, "L1210 [5]": {"tested_on": "L1210", "assay": "Induction of ROS generation in mouse L1210 cells at 0.5 uM preincubated for 1 hr followed by 1.05 J/cm2 UV-A irradiation by fluorescence microscopy in presence of trolox", "type": "functional, cell-based"}, "[6]": {"assay": "Octanol-water partition coefficient, logP of the compound", "type": "physicochemical"}, "L1210 [7]": {"tested_on": "L1210", "assay": "Drug uptake in mouse L1210 cells at 1 uM after 15 mins to 6 hrs by fluorescence microscopy", "type": "ADME, cell-based", "conditions": "l1210, 1 µM"}, "[8]": {"assay": "Drug uptake in plasma membrane of mouse L1210 cells at 1 uM after 1 to 6 hrs by fluorescence microscopy", "type": "ADME, cell-based", "conditions": "l1210, 1 µM"}, "[9]": {"assay": "Drug uptake in cytosol of mouse L1210 cells at 1 uM after 1 to 6 hrs by fluorescence microscopy", "type": "ADME, cell-based"}, "L1210 [10]": {"tested_on": "L1210", "assay": "Induction of cell cycle arrest in mouse L1210 cells assessed as accumulation at sub-G0 phase at 0.5 uM preincubated for 1 hr measured after 4 hrs by propidium iodide staining-based flow cytometry in absence of light (reference value: 16.6 +/- 0.4%)", "conditions": "l1210, 4 h"}, "L1210 [11]": {"tested_on": "L1210", "assay": "Induction of cell cycle arrest in mouse L1210 cells assessed as accumulation at sub-G0 phase at 1 uM preincubated for 1 hr measured after 4 hrs by propidium iodide staining-based flow cytometry in absence of light (reference value: 16.6 +/- 0.4%)", "conditions": "l1210, 4 h"}, "L1210 [12]": {"tested_on": "L1210", "assay": "Induction of cell cycle arrest in mouse L1210 cells assessed as accumulation at sub-G0 phase at 0.5 uM preincubated for 1 hr measured after 24 hrs by propidium iodide staining-based flow cytometry in absence of light (reference value: 16.6 +/- 0.4%)", "conditions": "l1210, 24 h"}, "L1210 [13]": {"tested_on": "L1210", "assay": "Induction of cell cycle arrest in mouse L1210 cells assessed as accumulation at sub-G0 phase at 1 uM preincubated for 1 hr measured after 24 hrs by propidium iodide staining-based flow cytometry in absence of light (reference value: 16.6 +/- 0.4%)", "conditions": "l1210, 24 h"}, "L1210 [14]": {"tested_on": "L1210", "assay": "Induction of cell cycle arrest in mouse L1210 cells assessed as accumulation at sub-G0 phase at 0.5 uM preincubated for 1 hr followed by 1.05 J/cm2 UV-A irradiation measured after 4 hrs by propidium iodide staining-based flow cytometry (reference value: 16.8 +/- 0.6%)", "type": "functional"}, "L1210 [15]": {"tested_on": "L1210", "assay": "Induction of cell cycle arrest in mouse L1210 cells assessed as accumulation at sub-G0 phase at 1 uM preincubated for 1 hr followed by 1.05 J/cm2 UV-A irradiation measured after 4 hrs by propidium iodide staining-based flow cytometry (reference value: 16.8 +/- 0.6%)", "type": "functional"}, "L1210 [16]": {"tested_on": "L1210", "assay": "Induction of cell cycle arrest in mouse L1210 cells assessed as accumulation at sub-G0 phase at 0.5 uM preincubated for 1 hr followed by 1.05 J/cm2 UV-A irradiation measured after 24 hrs by propidium iodide staining-based flow cytometry (reference value: 16.8 +/- 0.6%)", "type": "functional"}, "L1210 [17]": {"tested_on": "L1210", "assay": "Induction of cell cycle arrest in mouse L1210 cells assessed as accumulation at sub-G0 phase at 1 uM preincubated for 1 hr followed by 1.05 J/cm2 UV-A irradiation measured after 24 hrs by propidium iodide staining-based flow cytometry (reference value: 16.8 +/- 0.6%)", "type": "functional"}, "L1210 [18]": {"tested_on": "L1210", "assay": "Induction of cytomorphological changes in mouse L1210 cells at 0.5 uM preincubated for 1 hr measured after 6 to 24 hrs by Hoechst 33342 staining-based fluorescence microscopy in the absence of light", "type": "cell-based", "conditions": "l1210, 0.5 µM"}, "L1210 [19]": {"tested_on": "L1210", "assay": "Induction of cytomorphological changes in mouse L1210 cells assessed as cell shrinkage at 0.5 uM preincubated for 1 hr followed by 1.05 J/cm2 UV-A irradiation measured after 6 to 24 hrs by Hoechst 33342 staining-based fluorescence microscopy", "type": "functional"}, "L1210 [20]": {"tested_on": "L1210", "assay": "Induction of cytomorphological changes in mouse L1210 cells assessed as condensed chromatin at 0.5 uM preincubated for 1 hr followed by 1.05 J/cm2 UV-A irradiation measured after 6 to 24 hrs by Hoechst 33342 staining-based fluorescence microscopy", "type": "functional, cell-based"}, "L1210 [21]": {"tested_on": "L1210", "assay": "Induction of apoptosis in mouse L1210 cells assessed as late apoptotic cells at 0.5 uM preincubated for 1 hr followed by 1.05 J/cm2 UV-A irradiation measured after 24 hrs by Hoechst 33342 and propidium iodide staining-based fluorescence microscopy", "type": "functional, cell-based"}, "L1210 [22]": {"tested_on": "L1210", "assay": "Phototoxicity in mouse L1210 cells at 0.5 uM preincubated for 1 hr followed by 1.05 J/cm2 UV-A irradiation measured after 6 hrs by lactate dehydrogenase leakage assay", "type": "functional, cell-based"}, "L1210 [23]": {"tested_on": "L1210", "assay": "Phototoxicity in mouse L1210 cells at 1 uM preincubated for 1 hr followed by 1.05 J/cm2 UV-A irradiation measured after 24 hrs by lactate dehydrogenase leakage assay", "type": "functional, cell-based"}, "L1210 [24]": {"tested_on": "L1210", "assay": "[…] in mouse L1210 cells at 1 uM preincubated for 1 hr followed by 1.05 J/cm2 UV-A irradiation measured after 24 hrs by lactate dehydrogenase leakage assay", "type": "cell-based", "conditions": "l1210, 24 h"}, "L1210 [25]": {"tested_on": "L1210", "assay": "Induction of DNA fragmentation in mouse L1210 cells at 0.5 to 1 uM preincubated for 1 hr followed by 1.05 J/cm2 UV-A irradiation measured after 6 hrs by agarose gel electrophoresis", "type": "functional, cell-based"}, "L1210 [26]": {"tested_on": "L1210", "assay": "Induction of apoptosis in mouse L1210 cells at 0.5 uM preincubated for 1 hr followed by 1.05 J/cm2 UV-A irradiation measured after 5 hrs by Annexin Red based flow cytometry", "type": "functional"}},
  "note": "pIC50: −log10 of the molar value. Calls of active or inactive are those of the source. The rule behind the calls is not given here.",
  "data": [
    {"smiles": "CCCNC(=S)Nc1ccc2cc3ccc(NC(=S)NCCC)cc3nc2c1.Cl", "values": [
      {"measurement": "pIC50", "setting": "L1210 [1]", "result": 6.32},
      {"measurement": "IC50 at 48 h", "setting": "[2]", "result": 5.7, "unit": "µM"},
      {"measurement": "IC50 at 48 h", "setting": "[3]", "result": 43.5, "unit": "µM"},
      {"measurement": "pIC50", "setting": "[4]", "result": 5.36},
      {"measurement": "K", "setting": "Calf thymus DNA", "result": 6.8, "unit": "×10⁵ /M"},
      {"measurement": "Activity", "setting": "L1210 [5]", "result": "inactive"},
      {"measurement": "logP", "setting": "[6]", "result": 1.28},
      {"measurement": "Drug uptake", "setting": "L1210 [7]", "result": "Active"},
      {"measurement": "Drug uptake", "setting": "[8]", "result": "Not Active"},
      {"measurement": "Drug uptake", "setting": "[9]", "result": "Not Active"},
      {"measurement": "Activity", "setting": "L1210 [10]", "result": 17.7, "unit": "%"},
      {"measurement": "Activity", "setting": "L1210 [11]", "result": 17.2, "unit": "%"},
      {"measurement": "Activity", "setting": "L1210 [12]", "result": 25.9, "unit": "%"},
      {"measurement": "Activity", "setting": "L1210 [13]", "result": 21.1, "unit": "%"},
      {"measurement": "Activity", "setting": "L1210 [14]", "result": 22.5, "unit": "%"},
      {"measurement": "Activity", "setting": "L1210 [15]", "result": 32.5, "unit": "%"},
      {"measurement": "Activity", "setting": "L1210 [16]", "result": 43.2, "unit": "%"},
      {"measurement": "Activity", "setting": "L1210 [17]", "result": 47.9, "unit": "%"},
      {"measurement": "Activity", "setting": "L1210 [18]", "result": "Non-toxic"},
      {"measurement": "Activity", "setting": "L1210 [19]", "result": "Active"},
      {"measurement": "Activity", "setting": "L1210 [20]", "result": "Active"},
      {"measurement": "Activity", "setting": "L1210 [21]", "result": "Active"},
      {"measurement": "Activity", "setting": "L1210 [22]", "result": "inactive"},
      {"measurement": "Activity", "setting": "L1210 [23]", "result": "Active"},
      {"measurement": "Activity", "setting": "L1210 [24]", "result": "Non-toxic"},
      {"measurement": "Activity", "setting": "L1210 [25]", "result": "Active"},
      {"measurement": "Activity", "setting": "L1210 [26]", "result": 24, "unit": "%"}
    ]}
  ]
}
